This passage reports EC50, IC50 and outcome results from PubChem BioAssay AID179 (DTP/NCI, 2004).

The test system of this experiment is CEM cells HIV-1 protection, formazan growth assay. The experiment in a line: NCI AIDS Antiviral Assay. The settings on record: for IC50: measured here: growth of uninfected CEM cells. A digest of the protocol:
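Protection of CEM cells against HIV-1 was scored from cell growth (soluble formazan) across five concentrations, with parallel uninfected cells. Lack of protection may reflect toxicity.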

The source made the active and inactive calls.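 The calls were made as follows: active = compounds giving half or more protection of infected cells from virus-caused growth loss, again on retest; inactive = the rest.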 Where a SMILES comes first, the peptide text is derived from it. The star is where a group is joined. Cbz = O=C(OCc1ccccc1)*; NHNH2 = NN* Where only a bound is given, the exact number is not on record here.

As a reminder, the EC50 is the concentration that produces a half-maximal response. The IC50 is the midpoint of a concentration-inhibition curve. A higher IC50 goes with lower potency. As for `NC(=O)N/N=C1\CCCc2ccccc21`, the EC50 was greater than 178 µM and the IC50 is greater than 178 µM.

For the compound `C/C1=C/C2OC(=O)C3(C)C2C(CC2(C)OC1=CC2=O)OC3(O)C(C)C` (stereo not drawn), the EC50 was greater than 102 µM and the IC50 worked out at 10.5 µM.

For the compound `O=c1c2cccnc2cc(-c2ccccc2)n1CCO`, the EC50 was greater than 200 µM and the IC50 is greater than 200 µM.

On to `NNC(=O)C(CCC(=O)O)NC(=O)C(CCC(=O)O)NC(=O)C(CCC(=O)O)NC(=O)CNC(=O)CNC(=O)OCc1ccccc1` (stereo not drawn) (Cbz-GGEEE-NHNH2; configuration not given here), for which the EC50 was greater than 200 µM and the IC50 was greater than 200 µM.

For `O=C(O)C1C(c2c3ccc(=O)c(O)c-3oc3c(O)c(O)ccc23)C2(Cl)C(Cl)=C(Cl)C1(Cl)C2(Cl)Cl` (stereo not drawn), the concentration giving a half-maximal response (EC50) is greater than 151 µM and the IC50 was greater than 151 µM.

As for `CCCCCCCCCn1ccnc1NCCCCCCNc1nccn1CCCCCCCCC`, the EC50 is greater than 7.24 µM and the IC50 came out at 3.63 µM.

As for `O=CN1CCN(c2ccc3ccc(=O)[nH]c3n2)CC1`, the EC50 is greater than 200 µM and the IC50 was greater than 200 µM.

In turn, `O=C(O)c1cccc[c]1[Sb](=[O])([OH])[OH]` gave an EC50 greater than 200 µM and an IC50 of 87.1 µM.

With `COc1cc(OC)c2c(O)c3c(cc2c1)CC(C)(C)CC3=O`, the EC50 is greater than 2 µM and the IC50 stood at 1.38 µM.

On to `NC(=O)NCCSC1(SCCNC(N)=O)CCCCC1`, for which the EC50 was greater than 200 µM and the IC50 is greater than 200 µM.

For the compound `Cc1c(-c2cc3n(n2)C(c2cccs2)C(C#N)=C(c2ccccc2)N3)c(=O)n(-c2ccccc2)n1C` (stereo not drawn), the result was inactive.

`O=C(O)c1c(Cl)c(Cl)c(Cl)c(Cl)c1-c1c2ccc(=O)c(O)c-2oc2c(O)c(O)ccc12` came in with an EC50 greater than 83.2 µM and an IC50 of 51.3 µM.

Take `COC(=O)c1c2c(cc3c1CC1(Cc4cc5c(cc4C1=O)CCC5)C3)CCC2` (stereo not drawn): the EC50 is greater than 200 µM and the IC50 is 52.5 µM.

For `O=C(CCc1ccc(O)c(O)c1)NCCc1ccc(O)c(O)c1`, the EC50 is greater than 200 µM and the 50% inhibitory concentration (IC50) came to 9.55 µM.

Consider `CCc1cc2c(c3c1CCCC3=O)CC1(C2)Cc2cc(CC)c3c(c2C1)C(=O)CCC3`, for which the EC50 is greater than 200 µM and the IC50 was found to be 138 µM.

As to `Cn1cccc1/C=C/c1cc(Br)c(/C=C/c2cccn2C)cc1Br`, the result was inactive.

Consider `O=[N+]([O-])c1cccc(S(=O)(=O)c2cccc([N+](=O)[O-])c2)c1`, for which the EC50 was greater than 200 µM and the IC50 was greater than 200 µM.

Turning to `COc1ccc(N=Nc2c(N)nn3cc4c(nc23)CCCCC4)cc1`, the EC50 was greater than 200 µM and the IC50 worked out at 34.7 µM.

As to `N#CC(c1ccccc1)[P+](c1ccccc1)(c1ccccc1)c1ccccc1` (stereo not drawn), the EC50 is greater than 200 µM and the IC50 worked out at 141 µM.

For `CCCCCCCCCC/C=C/CC(=O)SCCNC(=O)CCNC(=O)[C@@H](O)C(C)(C)COP(=O)(O)OP(=O)(O)OCC1OC(n2cnc3c(N)ncnc32)C(O)C1OP(=O)(O)O` (stereo partly drawn), the result was inactive.

In the case of `COc1ccc(CC2c3cc(OC)c(OC)c(OC)c3CC[N+]2(C)C)cc1Oc1ccc(CC2c3cc4c(c(OC)c3CCN2C)OCO4)cc1` (stereo not drawn), the outcome was inactive.

For the compound `Cc1cc(O)c2c(oc3cc(O)c4c(c32)COC4=O)c1C(=O)O`, the EC50 was greater than 56.2 µM and the IC50 turned out to be 18.6 µM.

As for `O=c1/c(=C/c2ccco2)sc2nc3ccccc3n12`, the EC50 is greater than 3.89 µM and the concentration for half-maximal inhibition (IC50) was greater than 3.89 µM.

As to `O=c1c2ncn(C3CCCCO3)c2n(-c2ccccc2)c(=S)n1-c1ccccc1` (stereo not drawn), the result was inactive.

In the case of `CCOC(=O)/C(=C/c1cccc(C#N)c1)N(CC)CC`, the EC50 was greater than 661 µM and the IC50 is 347 µM.

As to `O=Nc1c(-c2ccc(Cl)cc2)nc2ncccn12`, the EC50 was greater than 200 µM and the IC50 amounted to 38 µM.

For the compound `CCCc1c(O)nc(Nc2nc3ccccc3[nH]2)[nH]c1=O`, the EC50 is greater than 200 µM and the IC50 was 63.1 µM.

Consider `Clc1ccc(N=C/C=C/Nc2ccc(Cl)cn2)nc1`, for which the EC50 is greater than 200 µM and the IC50 came out at 13.8 µM.

Take `O=C1/C(=C/c2ccc([N+](=O)[O-])cc2)Cc2ccccc21`: the EC50 was greater than 2.04 µM and the 50% inhibitory concentration (IC50) is greater than 2.04 µM.

Turning to `CCOC(=O)C1NCCc2c1[nH]c1ccccc21` (stereo not drawn), the EC50 was greater than 67.6 µM and the IC50 turned out to be 44.7 µM.

For the compound `O=C1C=C2C3c4c(cc(O)cc4C4c5c(O)cc6c(c5[C@@H]5C(c7ccc(O)cc7)C1C(=O)[C@@]25[C@@H]4c1ccc(O)cc1)[C@@H](c1cc(O)cc(O)c1)[C@H](c1ccc(O)cc1)O6)O[C@H]3c1ccc(O)cc1` (stereo partly drawn), the EC50 was greater than 15.8 µM and the IC50 was 10.7 µM.

For the compound `C[n+]1c(-c2ccc(/C=N/Nc3n[nH]c(=S)n3N/N=C/c3ccc(-c4cn5ccccc5[n+]4C)cc3)cc2)cn2ccccc21`, the EC50 was 18.6 µM and the IC50 is greater than 200 µM.

In the case of `O=C(CCC/C(CC(=O)c1ccc(Cl)cc1)=N\NC(=O)c1cc2ccccc2cc1O)Nc1cccc([N+](=O)[O-])c1`, the result was inactive.

Regarding `O=C(CC1(O)C(=O)Nc2c(Cl)cc(Cl)cc21)c1ccc(F)cc1` (stereo not drawn), the EC50 is greater than 28.2 µM and the IC50 was greater than 28.2 µM.

Turning to `CC(=O)Nc1ccc(S(=O)(=O)N/N=C/c2ccc(C)cc2)cc1`, the EC50 is greater than 398 µM and the IC50 is greater than 398 µM.

As to `O=C1[C@@H]2C3SC(c4ccccc43)[C@@H]2C(=O)N1c1ccccc1`, the result was inactive.

On to `Cc1ccc(C=C(C(=O)O)C(=O)O)o1`, for which the EC50 was 145 µM and the IC50 was greater than 200 µM.

As to `N#CC1C2C1C1C=CC2n2c(=O)n(-c3ccccc3)c(=O)n21` (stereo not drawn), the EC50 was greater than 200 µM and the IC50 is greater than 200 µM.

`O=C1/C(=C/c2ccccc2)CN(C(=O)CCN2CCCC2)C/C1=C\c1ccccc1`: the EC50 is greater than 575 µM and the concentration for half-maximal inhibition (IC50) is 0.813 µM.

Take `CCCCCOC(=O)c1ccc(NC(=O)CN(CC)CC)cc1`: the EC50 is greater than 200 µM and the 50% inhibitory concentration (IC50) was 55 µM.

In the case of `CCOC(=O)CC(Sc1ccccc1)Sc1ccccc1`, the outcome was inactive.

Take `S=C1N(/N=C/c2c3ccccc3cc3ccccc23)C(=Nc2ccccc2)C(=Nc2ccccc2)N1c1ccccc1`: the EC50 is greater than 200 µM and the IC50 is greater than 200 µM.

On to `CCCCC(O)(Cc1ccccc1)c1ccc(OCCN(CC)CC)cc1` (stereo not drawn), for which the EC50 was greater than 200 µM and the 50% inhibitory concentration (IC50) was determined as 14.1 µM.

Take `CSc1nc2c3ccccc3ccn2c1C(=O)N/N=C/c1ccccc1`: the EC50 was greater than 100 µM and the IC50 was greater than 100 µM.

Regarding `CC(C)(C)OC(=O)C1CCC/C1=N/Nc1ccc([N+](=O)[O-])cc1[N+](=O)[O-]` (stereo not drawn), the EC50 was greater than 200 µM and the IC50 stood at 30.2 µM.

For `C=CCc1ccccc1N(C(=O)c1ccccc1)C(C(=O)OCC)c1ccccc1` (stereo not drawn), the EC50 was greater than 13.2 µM and the concentration for half-maximal inhibition (IC50) was greater than 13.2 µM.

Take `NCCCCC(NC(=O)C(Cc1cnc[nH]1)NC(=O)CN)C(=O)O.[Cu+2]` (stereo not drawn): the EC50 is greater than 200 µM and the IC50 is 70.8 µM.

As for `CCOc1ccc(NC(=S)/N=C/c2c(O)cc(C)oc2=O)cc1`, the outcome was inactive.

As for `Cc1cc(C)nc(NS(=O)(=O)c2ccc(NC(=O)c3ccc4nc5ccccc5c(Nc5ccc(S(N)(=O)=O)cc5)c4c3)cc2)n1`, the EC50 was greater than 200 µM and the IC50 is 39.8 µM.

As for `CC1(C)CN=C(Nc2ccc(F)c(Cl)c2)S1`, the EC50 is greater than 200 µM and the IC50 was greater than 200 µM.

Consider `CCN(CC)CCNc1ccc2ncn3c4c(OC)ccc(OC)c4c(=O)c1c23`, for which the EC50 is greater than 50.1 µM and the IC50 amounted to 1.23 µM.

Consider `Clc1ccc2nsnc2c1`, for which the result was inactive.

Turning to `CCOC(OCC)C(CC)[Se]c1ccccc1[N+](=O)[O-]` (stereo not drawn), the EC50 is greater than 28.8 µM and the IC50 is 1.7 µM.

Regarding `CC(=O)Nc1c(C#N)c2n(c1C(=O)Nc1ccc(S(N)(=O)=O)cc1)CCC2`, the EC50 was greater than 200 µM and the IC50 was greater than 200 µM.

For the compound `CCCCC(=O)[O-].N.N.N.N.N.[Co+3].[O-][Cl+3]([O-])([O-])[O-]`, the result was inactive.

With `Cc1cc2c(c3ncccc13)OCN(Cc1ccc(Cl)c(Cl)c1)C2`, the EC50 was greater than 100 µM and the concentration for half-maximal inhibition (IC50) stood at 1.05 µM.

For `CS(=O)(=O)Sc1ccccc1C(=O)O`, the EC50 was greater than 1070 µM and the half-maximal inhibitory concentration (IC50) is greater than 1070 µM.

On to `O=C1NN=C(c2ccc(Cl)cc2)CC1C1C(=O)N(c2ccccc2)N=C1c1ccccc1` (stereo not drawn), for which the EC50 was greater than 100 µM and the 50% inhibitory concentration (IC50) worked out at 49 µM.

With `NC(=S)N/N=C(/CC(=O)c1ccccc1)C(=O)Nc1ccc(Cl)c(Cl)c1`, the EC50 was greater than 87.1 µM and the IC50 was greater than 87.1 µM.

In the case of `CC1OC(OC2C(O[C@H]3CC[C@@]4(C)C(=CC[C@H]5[C@@H]6C[C@@H]7O[C@]8(CC[C@H](C)CN8)[C@@H](C)[C@@H]7[C@@]6(C)CC[C@@H]54)C3)OC(CO)C(O)C2OC2OC(CO)C(O)C(O)C2O)C(O)C(O)C1O` (stereo partly drawn), the outcome was inactive.

As to `CCOC(=O)C(CC#N)(NC(C)=O)C(=O)OCC`, the EC50 is greater than 200 µM and the half-inhibitory concentration (IC50) is greater than 200 µM.

In the case of `CCN(CC)C1=CC(=O)n2cccc21`, the EC50 was greater than 200 µM and the IC50 is greater than 200 µM.

Take `O=C(O)/N=N\C(=O)O`: the EC50 is greater than 151 µM and the IC50 is greater than 151 µM.

Turning to `O=S(=O)(O)c1cc(O)c2ccc3c(S(=O)(=O)O)cc(S(=O)(=O)O)c4ccc1c2c34`, the outcome was inactive.

Consider `O=C(NCCc1c[nH]c2ccccc12)C(F)(F)F`, for which the EC50 is greater than 200 µM and the IC50 is greater than 200 µM.

In the case of `Cc1[nH]c2ccccc2c1C1Cc2ccccc2N1` (stereo not drawn), the outcome was inactive.

With `COc1cc(O)c2c(c1)O[C@@H]1OCC[C@H]21`, the EC50 was greater than 1200 µM and the IC50 came out at 871 µM.

Turning to `CC1=CSC(O)(c2ccc(Cl)cc2)c2noc(=O)n21` (stereo not drawn), the EC50 was greater than 200 µM and the IC50 is 112 µM.

With `CSC1=N[C@H](c2ccccc2)CS1`, the EC50 was greater than 200 µM and the IC50 was greater than 200 µM.

With `CC/C(N)=N\NC(=O)OC(C)(C)C`, the EC50 was greater than 200 µM and the half-inhibitory concentration (IC50) was greater than 200 µM.

On to `CN(C)c1ccc(-n2cccc2)cc1`, for which the EC50 was greater than 200 µM and the IC50 is greater than 200 µM.
